The source made the active and inactive calls.
Assays:
[1] = M. tuberculosis H37Rv growth inhibitors, H37Rv strain (AID 1626); type: functional
Estrogen receptor beta [2] = biological target: T1, Estrogen receptor beta (Homo sapiens, UniProt Q92731);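 note: recombinant ER-beta bound to coactivator SRC1 peptide in presence of estradiol agonist; inhibitors block coactivator peptide binding and lower the FRET signal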
Estrogen receptor beta [3] = biological target: T1, Estrogen receptor beta; test: ERβ–SRC-3 coactivator interaction inhibitors, confirmation, orthogonal assay, biochemical, ELISA, streptavidin-HRP readout (AID 1060)
Bcl-2-related protein A1 = biological target: T2, Bcl-2-related protein A1 (Mus musculus, UniProt Q07440); type: functional;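 note: confirmatory dose–response counterscreen on Bfl-1, used to check hits from a UBC13 polyubiquitin inhibitor campaign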
T2 sequence (Q07440 whole entry): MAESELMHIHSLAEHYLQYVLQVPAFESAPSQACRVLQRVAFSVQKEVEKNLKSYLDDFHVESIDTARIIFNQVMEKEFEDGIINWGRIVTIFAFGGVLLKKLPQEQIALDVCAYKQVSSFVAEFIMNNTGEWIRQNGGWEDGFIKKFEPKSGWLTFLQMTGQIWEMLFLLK

[4] = biological target: T3, Ubiquitin-conjugating enzyme E2 N (Homo sapiens, UniProt P61088); type: functional
T3 sequence (P61088 whole entry): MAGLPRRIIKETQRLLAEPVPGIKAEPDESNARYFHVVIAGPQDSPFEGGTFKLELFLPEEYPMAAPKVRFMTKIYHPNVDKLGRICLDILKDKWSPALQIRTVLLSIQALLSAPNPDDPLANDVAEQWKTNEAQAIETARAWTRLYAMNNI

[5] = biological target: T3, Ubiquitin-conjugating enzyme E2 N; type: functional; remark: listed apart in the source
Estrogen receptor = biological target: T4, Estrogen receptor (Homo sapiens, UniProt P03372);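 note: potency for inhibiting coactivator peptide recruitment to the receptor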
T4 sequence (P03372 whole entry): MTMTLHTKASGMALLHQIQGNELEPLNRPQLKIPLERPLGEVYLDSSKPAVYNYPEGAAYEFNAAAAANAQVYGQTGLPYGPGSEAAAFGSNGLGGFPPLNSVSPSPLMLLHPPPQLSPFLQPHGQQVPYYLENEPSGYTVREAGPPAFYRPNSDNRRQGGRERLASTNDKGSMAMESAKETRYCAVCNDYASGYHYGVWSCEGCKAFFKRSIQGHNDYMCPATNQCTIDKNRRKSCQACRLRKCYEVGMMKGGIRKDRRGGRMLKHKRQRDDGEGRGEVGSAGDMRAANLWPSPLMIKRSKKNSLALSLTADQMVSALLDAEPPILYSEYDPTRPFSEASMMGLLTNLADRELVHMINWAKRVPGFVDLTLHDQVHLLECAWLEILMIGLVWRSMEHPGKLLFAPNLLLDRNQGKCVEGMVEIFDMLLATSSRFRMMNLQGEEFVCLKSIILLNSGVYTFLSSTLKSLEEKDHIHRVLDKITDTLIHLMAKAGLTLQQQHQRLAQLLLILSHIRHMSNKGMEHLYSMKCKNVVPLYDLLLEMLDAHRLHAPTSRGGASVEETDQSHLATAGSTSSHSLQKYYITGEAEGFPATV

[6] = biological target: Glyceraldehyde-3-phosphate dehydrogenase (Homo sapiens, UniProt P04406)
Glyceraldehyde-3-phosphate dehydrogenase, sequence (P04406 whole entry): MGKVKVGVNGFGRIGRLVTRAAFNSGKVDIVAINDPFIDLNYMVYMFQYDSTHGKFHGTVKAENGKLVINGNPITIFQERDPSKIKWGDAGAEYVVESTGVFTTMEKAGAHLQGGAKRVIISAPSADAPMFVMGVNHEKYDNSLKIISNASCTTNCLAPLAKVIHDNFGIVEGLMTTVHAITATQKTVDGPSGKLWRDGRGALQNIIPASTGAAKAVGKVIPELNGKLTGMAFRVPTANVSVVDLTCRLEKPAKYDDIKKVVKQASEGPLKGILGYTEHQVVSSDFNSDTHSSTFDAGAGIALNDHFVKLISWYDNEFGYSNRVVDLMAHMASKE

[7] = biological target: T5, Alkaline phosphatase, tissue-nonspecific isozyme (Homo sapiens, UniProt P05186); test: human TNAP enzyme inhibitors, SAR follow-up, biochemical, luminescent, dose response (AID 1056)
T5 sequence (P05186 whole entry): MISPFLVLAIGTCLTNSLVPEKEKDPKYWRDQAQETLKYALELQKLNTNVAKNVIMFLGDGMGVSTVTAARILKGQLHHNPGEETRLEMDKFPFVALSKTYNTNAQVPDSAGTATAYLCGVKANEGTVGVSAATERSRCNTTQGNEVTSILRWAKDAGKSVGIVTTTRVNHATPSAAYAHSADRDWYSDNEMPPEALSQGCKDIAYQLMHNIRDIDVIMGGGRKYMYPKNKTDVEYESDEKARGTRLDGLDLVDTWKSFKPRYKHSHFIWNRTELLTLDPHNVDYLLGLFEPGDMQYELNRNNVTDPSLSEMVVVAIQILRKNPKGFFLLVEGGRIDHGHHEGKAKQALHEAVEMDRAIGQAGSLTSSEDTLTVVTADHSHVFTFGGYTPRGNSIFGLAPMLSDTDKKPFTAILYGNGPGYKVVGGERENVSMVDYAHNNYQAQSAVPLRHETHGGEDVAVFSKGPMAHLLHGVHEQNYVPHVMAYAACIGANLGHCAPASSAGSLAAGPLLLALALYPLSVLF

[8] = system: Streptococcus sp. 'group A'; test: growth inhibition of control SK(-) GAS strain, dose response, counter-screen for streptokinase expression inhibitor project, luminescence, kanamycin, BacTiterGlo, confirmation (AID 1900); type: functional, organism-based
Streptococcus = test: Group A Streptococcus viability loss, dose response, counter-screen for streptokinase expression inhibitor project, luminescence, BacTiterGlo (AID 1915); type: functional, organism-based;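 note: potency for reduction of bacterial viability or growth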
[9] = biological target: T6, Short transient receptor potential channel 4 (Mus musculus, UniProt Q9QUQ5); test: mouse TRPC4 channel activators, dose response, cell-based, HEK293 TRPC4/mu-opioid, Fluo-4 calcium (AID 434937); type: functional
T6 sequence (Q9QUQ5 whole entry): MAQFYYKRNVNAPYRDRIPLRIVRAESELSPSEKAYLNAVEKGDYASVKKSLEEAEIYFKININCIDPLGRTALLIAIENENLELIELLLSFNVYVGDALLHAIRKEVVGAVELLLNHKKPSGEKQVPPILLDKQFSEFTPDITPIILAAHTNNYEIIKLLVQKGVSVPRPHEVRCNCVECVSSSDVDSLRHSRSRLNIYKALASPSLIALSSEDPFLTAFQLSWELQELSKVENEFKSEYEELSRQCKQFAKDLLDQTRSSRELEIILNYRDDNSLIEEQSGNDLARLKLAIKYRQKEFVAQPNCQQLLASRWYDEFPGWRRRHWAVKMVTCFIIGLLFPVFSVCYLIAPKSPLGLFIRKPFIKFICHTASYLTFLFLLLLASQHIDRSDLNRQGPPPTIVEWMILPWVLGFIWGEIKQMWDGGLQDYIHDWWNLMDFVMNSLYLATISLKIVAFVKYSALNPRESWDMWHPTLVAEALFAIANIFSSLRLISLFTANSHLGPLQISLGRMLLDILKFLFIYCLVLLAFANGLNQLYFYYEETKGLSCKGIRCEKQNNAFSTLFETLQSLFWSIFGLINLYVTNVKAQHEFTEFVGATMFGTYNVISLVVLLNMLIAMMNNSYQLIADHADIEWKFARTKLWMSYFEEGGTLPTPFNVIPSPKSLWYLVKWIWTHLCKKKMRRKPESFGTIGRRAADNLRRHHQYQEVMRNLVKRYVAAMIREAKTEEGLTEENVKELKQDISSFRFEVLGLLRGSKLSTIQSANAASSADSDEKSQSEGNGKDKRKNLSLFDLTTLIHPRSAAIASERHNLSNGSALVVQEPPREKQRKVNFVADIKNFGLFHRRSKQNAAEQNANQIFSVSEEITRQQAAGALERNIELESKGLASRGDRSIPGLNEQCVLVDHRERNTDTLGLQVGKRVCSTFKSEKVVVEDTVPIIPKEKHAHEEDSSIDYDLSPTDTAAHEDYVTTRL

Vero [10] = test: cells; type: functional, cell-based; settings: Chlorocebus sabaeus
Vero [11] = test: cells; type: functional; settings: Chlorocebus sabaeus
[12] = biological target: T7, Mannose-6-phosphate isomerase (Homo sapiens, UniProt P34949); test: human PMI inhibitors, high substrate, primary screen, biochemical, fluorescence intensity, high mannose 6-phosphate (AID 1220)
T7 sequence (P34949 whole entry): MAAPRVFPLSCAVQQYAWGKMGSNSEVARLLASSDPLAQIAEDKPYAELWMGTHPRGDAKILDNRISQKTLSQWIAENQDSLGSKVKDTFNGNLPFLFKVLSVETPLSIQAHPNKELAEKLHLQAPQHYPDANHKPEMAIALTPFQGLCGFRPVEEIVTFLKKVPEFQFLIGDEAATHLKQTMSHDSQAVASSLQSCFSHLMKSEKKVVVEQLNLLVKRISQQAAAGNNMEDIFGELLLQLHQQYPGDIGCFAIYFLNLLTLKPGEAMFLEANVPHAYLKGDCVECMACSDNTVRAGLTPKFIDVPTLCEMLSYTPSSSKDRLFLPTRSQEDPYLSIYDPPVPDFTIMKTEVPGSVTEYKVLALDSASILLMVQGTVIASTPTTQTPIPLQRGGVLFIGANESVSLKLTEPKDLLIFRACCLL

H9c2 = test: cells; type: functional, cell-based; settings: Rattus norvegicus, H9c2, Myocardium;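 note: confirmatory concentration-response retest of ultra-high-throughput screening hits for modulation of myocardial damage; cell death induced by hydrogen peroxide oxidative stress; compound pretreatment for 60 min then peroxide exposure for 2 h; potency is for protecting the cells against peroxide damage rather than for killing them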
[13] = NIH-3T3 fibroblast cytotoxicity, dose response, cytotoxicity control, cell-based, fluorescence, Alamar Blue, secondary assay (AID 2327); type: functional;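 note: NIH-3T3 mouse fibroblasts cultured with fluconazole at 8 µg/mL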
[14] = inhibitors of firefly luciferase expression or activity, dose response, H4 neuroglioma cells, luminescence (AID 1990); type: functional, cell-based
cells [15] = type: functional, cell-based
[16] = Luminescence Cell-Based Dose Response HTS to Identify Inhibitors of 5'UTR Stem-Loop Driven Prion Protein mRNA Translation in H4 Neuroglioblastoma Cells. [Related pubchem assays: 1827 (Project Summary), 1813 (Primary HTS)]; type: functional
[17] = inhibitors of SNCA 5'UTR-driven reporter translation, confirmation, H4 neuroglioma cells, luminescence (AID 1988); type: functional, cell-based
[18] = C. albicans growth with fluconazole, confirmation, fluorescence, retest (AID 2467); type: functional, cell-based
cells [19] = type: functional, cell-based; remark: listed apart in the source
[20] = biological target: Induced myeloid leukemia cell differentiation protein Mcl-1 (Homo sapiens, UniProt Q07820); type: functional
Induced myeloid leukemia cell differentiation protein Mcl-1, sequence (Q07820 whole entry): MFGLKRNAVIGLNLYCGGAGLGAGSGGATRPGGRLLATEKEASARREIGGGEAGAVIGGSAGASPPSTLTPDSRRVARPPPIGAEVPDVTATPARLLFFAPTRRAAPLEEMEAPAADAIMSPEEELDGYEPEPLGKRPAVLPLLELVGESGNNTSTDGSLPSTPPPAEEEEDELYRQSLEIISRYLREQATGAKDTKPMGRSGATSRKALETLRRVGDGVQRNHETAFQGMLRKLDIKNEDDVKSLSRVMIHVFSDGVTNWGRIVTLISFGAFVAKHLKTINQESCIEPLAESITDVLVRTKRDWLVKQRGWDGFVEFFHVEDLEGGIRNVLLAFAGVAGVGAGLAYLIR

Vero [21] = test: Vero cell cytotoxicity, cytotoxicity control for flavivirus capping enzyme inhibitors (AID 588742); type: functional; settings: Chlorocebus sabaeus
Genome polyprotein = Genome polyprotein (dengue virus type 2, UniProt P29990); test: Dengue-2 NS5 methyltransferase inhibitors, primary screen, biochemical, confirmation dose response (AID 588689); type: functional
Genome polyprotein, sequence (P29990 2492-3391 limits assumed): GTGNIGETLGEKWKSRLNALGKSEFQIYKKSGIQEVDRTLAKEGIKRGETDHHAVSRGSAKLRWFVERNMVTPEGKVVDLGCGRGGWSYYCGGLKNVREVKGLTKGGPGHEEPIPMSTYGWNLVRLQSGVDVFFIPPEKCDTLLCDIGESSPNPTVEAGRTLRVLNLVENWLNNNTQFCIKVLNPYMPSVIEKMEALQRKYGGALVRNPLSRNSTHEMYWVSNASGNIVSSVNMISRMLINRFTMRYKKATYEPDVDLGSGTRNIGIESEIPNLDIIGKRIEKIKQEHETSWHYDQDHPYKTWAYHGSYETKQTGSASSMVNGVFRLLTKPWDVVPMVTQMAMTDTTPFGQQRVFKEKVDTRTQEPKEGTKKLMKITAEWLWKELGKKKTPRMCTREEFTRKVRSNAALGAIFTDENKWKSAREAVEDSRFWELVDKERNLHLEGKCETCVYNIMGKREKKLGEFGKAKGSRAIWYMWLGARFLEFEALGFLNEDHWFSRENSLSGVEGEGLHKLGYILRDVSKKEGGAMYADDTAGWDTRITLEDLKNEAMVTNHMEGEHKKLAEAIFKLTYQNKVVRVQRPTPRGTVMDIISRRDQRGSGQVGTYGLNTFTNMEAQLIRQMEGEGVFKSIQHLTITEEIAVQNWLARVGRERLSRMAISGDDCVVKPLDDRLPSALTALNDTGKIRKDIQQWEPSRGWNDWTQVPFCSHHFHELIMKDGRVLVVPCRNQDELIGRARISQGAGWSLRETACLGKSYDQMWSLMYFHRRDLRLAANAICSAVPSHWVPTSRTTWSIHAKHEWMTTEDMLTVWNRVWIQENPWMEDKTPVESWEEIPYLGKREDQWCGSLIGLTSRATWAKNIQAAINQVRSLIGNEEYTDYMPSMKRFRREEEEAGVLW

[22] = THP-1 cell cytotoxicity, dose response, cytotoxicity control for Vif-APOBEC3G degradation inhibitor project, THP-1 cells (AID 1117359); type: functional; settings: Human immunodeficiency virus 1, THP-1

T1 sequence (Q92731 whole entry): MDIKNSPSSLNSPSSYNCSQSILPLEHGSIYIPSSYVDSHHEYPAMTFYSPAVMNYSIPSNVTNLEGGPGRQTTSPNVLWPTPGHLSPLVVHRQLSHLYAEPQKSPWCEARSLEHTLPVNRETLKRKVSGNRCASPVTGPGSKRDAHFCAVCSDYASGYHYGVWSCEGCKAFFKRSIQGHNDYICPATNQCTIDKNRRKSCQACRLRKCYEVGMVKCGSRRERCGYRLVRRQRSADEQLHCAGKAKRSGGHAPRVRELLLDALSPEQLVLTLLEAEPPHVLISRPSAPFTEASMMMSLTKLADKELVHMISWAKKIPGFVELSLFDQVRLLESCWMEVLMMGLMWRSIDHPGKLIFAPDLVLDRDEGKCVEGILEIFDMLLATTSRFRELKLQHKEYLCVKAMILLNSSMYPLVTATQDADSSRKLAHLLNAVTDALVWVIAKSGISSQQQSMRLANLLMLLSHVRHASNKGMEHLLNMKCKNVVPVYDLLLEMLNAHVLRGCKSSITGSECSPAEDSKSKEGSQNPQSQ

SMILES: Cc1ccc(NC(=O)C2CCCCC2C(=O)O)cc1Cl (configuration not stated)
- IC50 [1]: > 100 µM (active)

SMILES: O=C(/C=C/Nc1ccc(Oc2ccccc2Cl)cc1)c1ccco1
- IC50 [1]: > 100 µM (active)

SMILES: O=C(Cn1nnc(-c2ccc3c(c2)OCO3)n1)NCc1ccco1
- IC50 (Estrogen receptor beta [2]): 19.6 µM (active)
- IC50 (Estrogen receptor beta [3]): 3 µM (not active)

SMILES: COc1ccc(CCNC(=O)c2ccc(CN3CCC(Cc4ccccc4)CC3)cc2)cc1
- IC50 [1]: > 100 µM (active)

SMILES: O=C1c2cccc3cccc(c23)N1Cc1ccc(F)cc1
- IC50 (Bcl-2-related protein A1): > 20 µM (inactive)
- IC50 [4]: 6.78 µM (active)
- IC50 [5]: 5.15 µM (active)

SMILES: COc1cc(C2C(C#N)=C(N)Oc3cc(C)oc(=O)c32)cc2c1OCO2 (configuration not stated)
- IC50 (Estrogen receptor): 26.2 µM (active)
- IC50 (Estrogen receptor beta [2]): 13.6 µM (active)
- IC50 (Estrogen receptor beta [3]): 9.24 µM (not active)

SMILES: COc1ccc(S(=O)(=O)n2cc(C(N)=O)c3ccccc32)cc1
- IC50 [6]: > 100 µM (not active)
- IC50 [7]: > 100 µM (inactive)

SMILES: COc1ccc(OCc2nn3c(-c4cccc(OC)c4)nnc3s2)cc1
- IC50 [1]: > 100 µM (active)

SMILES: Cn1c(C(=O)Nc2ccc3c(c2)OCO3)cc2c(=O)n(C)c3ccccc3c21
- IC50 (Estrogen receptor): 22.6 µM (active)
- IC50 (Estrogen receptor beta [2]): > 50 µM (not active)
- IC50 (Estrogen receptor beta [3]): 0.0468 µM (not active)

SMILES: CCCOc1ccc(C(=O)NC(=S)NNC(=O)c2c(-c3ccccc3)noc2C)cc1
- EC50 [8]: 0.137 µM (active)
- EC50 (Streptococcus): 0.596 µM (active)
- EC50 [9]: 2.66 µM (active)
- IC50 (Vero [10]): > 25 µM (active)
- CC50 (Vero [11]): 12.1 µM (active)

SMILES: Cc1sc2nc3ccc(N4CCCC4)nn3c(=O)c2c1C
- IC50 [12]: > 50 µM (not active)

SMILES: CN(Cc1ccccc1)C(=O)COC(=O)c1cc(-c2ccc(Cl)s2)nc2ccccc12
- IC50 (Bcl-2-related protein A1): > 20 µM (inactive)
- IC50 [4]: 11.8 µM (active)
- IC50 [5]: > 20 µM (inactive)

SMILES: O=S(=O)(Nc1ccc2ncccc2c1)c1ccccc1OC(F)(F)F
- IC50 [6]: > 100 µM (not active)
- IC50 [7]: > 100 µM (inactive)

SMILES: COc1ccc(Cl)cc1C(=O)Nc1ccccc1N1CCN(C)CC1
- EC50 [9]: 5.96 µM (active)

SMILES: CCOC(=O)C1=C(COC(=O)c2cc(OC)c(OC)c(OC)c2)NC(=O)NC1C (configuration not stated)
- IC50 (Bcl-2-related protein A1): > 20 µM (inactive)
- IC50 [4]: 6.85 µM (active)
- IC50 [5]: 8.55 µM (active)
- IC50 (H9c2): 11.2 µM (active)

SMILES: Cc1cc(SCC(=O)N/N=C/c2ccc(O)c(O)c2O)c(C)cc1Br
- EC50 [13]: > 150 µM (inconclusive)
- EC50 [14]: 11 µM (active)
- EC50 [8]: 3.27 µM (active)
- EC50 (cells [15]): 11.6 µM (active)
- EC50 [16]: 13.9 µM (active)
- EC50 [17]: 26.7 µM (active)
- EC50 [18]: 1.45 µM (active)
- EC50 (cells [19]): > 350 µM (not active)
- IC50 [20]: 5.65 µM (active)
- EC50 (Streptococcus): 6.34 µM (active)
- IC50 [12]: > 50 µM (not active)
- CC50 (Vero [21]): > 40 µM (active)
- IC50 (Genome polyprotein): 17.4 µM (active)
- CC50 [22]: 2.57 µM (active)

— ChEMBL document CHEMBL1201862, “PubChem BioAssay data set” (2004)
